Experimental data published in US11292821B2, “Peptides and combination of peptides for use in immunotherapy against lung cancer, including NSCLC, SCLC and other cancers” (Immatics Biotechnologies GmbH, priority 2017, dated 2022).

test system: HLA-A*01; test: MHC binding assay (UV-ligand exchange, β2m ELISA); set-up: species or system human
From the text: Candidate peptides for T cell based therapies according to the present invention were further tested for their MHC binding capacity (affinity). The individual peptide-MHC complexes were produced by UV-ligand exchange, where a UV-sensitive peptide is cleaved upon UV-irradiation, and exchanged with the peptide of interest as analyzed. Only peptide candidates that can effectively bind and stabilize the peptide-receptive MHC molecules prevent dissociation of the MHC complexes. To determine the yield of the exchange reaction, an ELISA was performed based on the detection of the light chain (β2m) of stabilized MHC complexes. The assay was performed as generally described in Rodenko et al. (Rodenko et al., 2006).
96 well MAXISorp plates (NUNC) were coated over night with 2 ug/ml streptavidin in PBS at room temperature, washed 4× and blocked for 1 h at 37° C. in 2% BSA containing blocking buffer. […] Peptide-MHC monomers of the UV-exchange reaction were diluted 100-fold in blocking buffer. Samples were incubated for 1 h at 37° C., washed four times, incubated with 2 ug/ml HRP conjugated anti-β2m for 1h at 37° C., washed again and detected with TMB solution that is stopped with […]. Absorption was measured at 450 nm. Candidate peptides that show a high exchange yield (preferably higher than 50%, most preferred higher than 75%) are generally preferred for a generation and production of antibodies or fragments thereof, and/or T cell receptors or fragments thereof, as they show sufficient avidity to the MHC molecules and prevent dissociation of the MHC complexes.

Peptide exchange (peptide exchange yield, MHC class I binding score)	Substance
“+++” (>50 = +++)	172 (RTDSCSSAQAQY; listed as Homo sapiens) [compound 172]
“+++” (>50 = +++)	176 (SRTINVSNLY; listed as Homo sapiens) [compound 176]
“++++” (>75% = ++++)	177 (SSDEVNFLVY; listed as Homo sapiens) [compound 177]
“++” (>20% = ++)	178 (SSDSSTLPKL; listed as Homo sapiens) [compound 178]
“++++” (>75% = ++++)	179 (STAKSATWTY; listed as Homo sapiens) [compound 179]
“++++” (>75% = ++++)	180 (STDPWIQMAY; listed as Homo sapiens) [compound 180]
“+++” (>50 = +++)	181 (TADGKTYYY; listed as Homo sapiens) [compound 181]
“+++” (>50 = +++)	182 (TDYHVRVY; listed as Homo sapiens) [compound 182]
“++++” (>75% = ++++)	183 (TLEDIATSHLY; listed as Homo sapiens) [compound 183]
“+++” (>50 = +++)	184 (TSAHPEDSSFY; listed as Homo sapiens) [compound 184]
“+++” (>50 = +++)	186 (TTDIIEKY; listed as Homo sapiens) [compound 186]
“+++” (>50 = +++)	188 (VSDAKLDKY; listed as Homo sapiens) [compound 188]
“+++” (>50 = +++)	190 (VTDGINPLIDRY; listed as Homo sapiens) [compound 190]
“++++” (>75% = ++++)	191 (VTDGSLYEGVAY; listed as Homo sapiens) [compound 191]
“++++” (>75% = ++++)	192 (VTEESFDSKFY; listed as Homo sapiens) [compound 192]
“+” (>10% = +)	194 (VVADTKMIEY; listed as Homo sapiens) [compound 194]
“++++” (>75% = ++++)	195 (VVDSVGGYLY; listed as Homo sapiens) [compound 195]
“+” (>10% = +)	196 (WMFFVINY; listed as Homo sapiens) [compound 196]
“+++” (>50 = +++)	197 (YADTVRPEFY; listed as Homo sapiens) [compound 197]
“++++” (>75% = ++++)	198 (YLDPVQRDLY; listed as Homo sapiens) [compound 198]
“++” (>20% = ++)	199 (YLPQHTIETY; listed as Homo sapiens) [compound 199]

Peptide exchange (peptide exchange yield, MHC class I binding score)	Substance
“++++” (>75% = ++++)	200 (YSDEDVTKY; listed as Homo sapiens) [compound 200]
“++++” (>75% = ++++)	394 (ASEAEMRLFY; listed as Homo sapiens) [compound 394]
“++++” (>75% = ++++)	396 (ASEFGNHYLY; listed as Homo sapiens) [compound 396]
“++++” (>75% = ++++)	397 (ASEITSKGASLY; listed as Homo sapiens) [compound 397]
“++++” (>75% = ++++)	399 (ATDIPCLLY; listed as Homo sapiens) [compound 399]
“+++” (>50 = +++)	400 (ATDISRQNEY; listed as Homo sapiens) [compound 400]
“++++” (>75% = ++++)	401 (DSDESYMEKSLY; listed as Homo sapiens) [compound 401]
“+++” (>50 = +++)	402 (DTDSQRLAY; listed as Homo sapiens) [compound 402]
“+++” (>50 = +++)	403 (ELDSKVEVLTY; listed as Homo sapiens) [compound 403]
“++++” (>75% = ++++)	404 (ETARKFLYY; listed as Homo sapiens) [compound 404]
“++++” (>75% = ++++)	406 (ETEQTKFWDY; listed as Homo sapiens) [compound 406]
“++++” (>75% = ++++)	407 (FSDNDKLYLY; listed as Homo sapiens) [compound 407]
“+++” (>50 = +++)	408 (FTEQWTDGY; listed as Homo sapiens) [compound 408]
“++++” (>75% = ++++)	409 (FVDPLVTNY; listed as Homo sapiens) [compound 409]
“++++” (>75% = ++++)	410 (GSDHQSPSSSSY; listed as Homo sapiens) [compound 410]
“++++” (>75% = ++++)	411 (GTVYEDLRY; listed as Homo sapiens) [compound 411]
“++++” (>75% = ++++)	412 (ILDEVIMGY; listed as Homo sapiens) [compound 412]
“++++” (>75% = ++++)	413 (ISDRYYTALY; listed as Homo sapiens) [compound 413]
“+++” (>50 = +++)	414 (KTDESLTKY; listed as Homo sapiens) [compound 414]
“+++” (>50 = +++)	415 (LLDPRSYHTY; listed as Homo sapiens) [compound 415]
“++++” (>75% = ++++)	416 (LLDTAQKNLY; listed as Homo sapiens) [compound 416]

Peptide exchange (peptide exchange yield, MHC class I binding score)	Substance
“++++” (>75% = ++++)	417 (LLEDKHFQSY; listed as Homo sapiens) [compound 417]
“+++” (>50 = +++)	418 (LSDPSGPKSY; listed as Homo sapiens) [compound 418]
“++++” (>75% = ++++)	419 (LSELKPMSY; listed as Homo sapiens) [compound 419]
“++++” (>75% = ++++)	420 (LTEDKETLQY; listed as Homo sapiens) [compound 420]
“++++” (>75% = ++++)	421 (LTELLERAAFY; listed as Homo sapiens) [compound 421]
“++++” (>75% = ++++)	422 (MIDVTKSYY; listed as Homo sapiens) [compound 422]
“++++” (>75% = ++++)	423 (NLDAVHDITVAY; listed as Homo sapiens) [compound 423]
“+++” (>50 = +++)	424 (NLDEEKQLLY; listed as Homo sapiens) [compound 424]
“++++” (>75% = ++++)	425 (NLDIIQQEY; listed as Homo sapiens) [compound 425]
“+++” (>50 = +++)	426 (NLDQATRVAY; listed as Homo sapiens) [compound 426]
“++++” (>75% = ++++)	427 (NSDEQKITEMVY; listed as Homo sapiens) [compound 427]
“++++” (>75% = ++++)	428 (NSELSCQLY; listed as Homo sapiens) [compound 428]
“++++” (>75% = ++++)	429 (NTEDSSMSGYLY; listed as Homo sapiens) [compound 429]
“++++” (>75% = ++++)	431 (NTSDMMGRMSY; listed as Homo sapiens) [compound 431]
“+++” (>50 = +++)	432 (NVDPVQHTY; listed as Homo sapiens) [compound 432]
“++++” (>75% = ++++)	433 (QIDTGENLY; listed as Homo sapiens) [compound 433]
“++++” (>75% = ++++)	434 (QTDCAPNNGY; listed as Homo sapiens) [compound 434]
“++++” (>75% = ++++)	435 (QTDDTWRTEY; listed as Homo sapiens) [compound 435]
“++++” (>75% = ++++)	437 (STDGKHWWEY; listed as Homo sapiens) [compound 437]
“+++” (>50 = +++)	438 (STDNFNCKY; listed as Homo sapiens) [compound 438]
